The results in this text go back to patent US20140099354A1, “BIOPASSIVATING MEMBRANE STABILIZATION BY MEANS OF NITROCARBOXYLIC ACID-CONTAINING PHOSPHOLIPIDS IN PREPARATIONS AND COATINGS” (priority 2011, published 2014).

One data set concerns ovarian tissue strips. The experiment in a line: Cryopreservation of ovarian tissue strips: intact follicles. Particulars: liquid nitrogen 14 days, cultured 14 days.
The test system of a further data set is sciatic nerve. Description: Viability of cryopreserved nerve grafts (Annexin-V staining, FACS). The class given is cell-based, rats. Conditions: 100 mmolar solution 1 hour; −30° C. 72 hours.
The test system of a further data set is cortical neurons. The experiment in a line: Hypoxia and reperfusion of cortical neurons (viability, LDH). Particulars: for results of the hypoxia experiments compared with reference nitrated phospholipids: neurons and cardiac myocytes, 10 to 50 μmol/l.
Data set [1] relates to Cardiac muscle cells derived from neonatal rat heart. Description: Hypoxia of cardiac muscle cells (viability, mitochondrial NAD+). The class given is cell-based. Particulars: for mitochondrial NAD+ content: hypoxia, baseline 5. As for the experimental part: Cardiac muscle cells derived from neonatal rat heart (Nitobe J, et al, Reactive oxygene species regulate FLICE inhibitory protein and susceptibility to FAS-mediated apoptosis in cardiac myocytes. Cardiovasc RES 2003, 119-28). The heart muscle cells were cultured in Dulbecco/Eagle medium (DMEM) with 10% FCS added under standard conditions for two days. Incubation with the natural and nitrated phospholipids, as well as the hypoxia experiments were carried out as described above. Incubated cells were grown in culture medium under standard conditions for 24 hours. This is followed by a vitality staining as described above. […] The frozen cells were thawed up to -4° C. and homogenized for subsequent NAD^+ analyses. By means of differential centrifuge, pellets containing mitochondria were separated (Di Lisa, et al, 1993; Am. J. Physiol. 264, […]-[…]). The NAD^+ content was determined by fluoroscopy, and normalized to the protein content (Veloso, D., and […]., 1974;) Anal. Biochem., 449-450).

Experimental for cortical neurons: To determine whether the membrane-stabilizing properties of nitrated phospholipids can lead to attenuation of effects due to an ischemic event or the re-perfusion damage, cortical neurons and cardiac myocytes were investigated.
Freshly prepared cortex tissue was separated with Papain and tissue suspensions were cultured in culture vessels (Prim ARA; BD Biosciences, USA) with Neurobasal A/B27 medium (Invitrogen) for 10-12 days. Cell suspensions were divided, and replenished with suspensions of the natural phospholipids SOPC and PLPC, as well as the analogue phospholipids with nitration of unsaturated fatty acids (1-stearoyl-2-(9-nitrooleoyl)-sn-PC and 1-palmitoyl-2-(9-nitrolinoleoyl)-sn-PC) at concentrations of 10 to 50 μmol/l in NaCl (0.9%) were added. […] After 4 hours, the cells were washed three times with buffered saline and buffered NaCl solution with the addition of MgCl2 and CaCl2 in an anaerobic atmosphere (85% N2, 5% O2, 10% CO2; at 35° C.) for 10 and 30 minutes. Then, the cells were washed once and grown in culture medium under aerobic conditions for 24 hours. […] Cells were stained with annexin V-FITC and propidium iodide (Molecular probes, USA). The vital and necrotic cells were measured by flow cytometry (FACSCalibur, Becton & Dickinson). The volume of culture medium was determined and an aliquot was taken for determination of the LDH (lactate dehydrogenase) concentration.
Experimental for ovarian tissue strips: Ovar ectomy was performed in female sheep; resected tissues were cut into 60 ovarian tissue strips. The ovarian strips were either cultured directly (n=4) or prepared with a usual solution for vitrification (VS group; Vitrification Kit, Sage, USA) or incubated with nitrated PLs (NPL group). For this purpose, the tissue strips were bathed in an equibrilation solution (ART-8025-A) which consisted of MOPS-buffered amino acids and gentamicin sulfate (10 mg/l), and 7.5% (v/v) of each DMSO and ethylene glycol and 12 mg/ml human serum albumin for 30 minutes. Thereafter the strips of the VS group were placed in the vitrification solution (ART-8025-B), which is a MOPS-buffered solution containing amino acids and gentamicin sulfate, that contain 15% (v/v) each DMSO and ethylenglycol, 12 mg/ml human albumin and 0.6 M sucrose. The strips of the NPL group were placed in a solution containing 25% (v/v) nitrated PL SNOPC or PNLPC in a PBS-buffered 1% DMSO solution containing 5% human albumin for 60 minutes. The treated tissue strips were then immersed into liquid nitrogen and kept here for 14 days. Then removal and warming of the tissue pieces was performed in AIM-V medium (Gibco, Invitrogen) in a sterile culture dish, first up to 5° C. within 20 minutes, then heated further in a water bath up to 37° C., within the following 60 minutes. The culture medium was replaced and specimens cultured for 14 days. After this, the tissue pieces were fixed, embedded in paraffin and cut, followed by histological examination. […] The total number of intact follicles in the control group was taken as a reference to the number of follicles in the cryopreserved groups.
The culture medium has been exchanged by every 2nd day; samples for hormone analysis were taken and frozen at that time. Determination of 17 β-estradiol and progesterone were performed with a radio-immuno assay (diagnostic systems laboratories, USA).

On to “1,2-di-(9-nitro-α-linolenoyl)-sn-3-glycerophosphocholine, 1,2-di-(10-nitro-α-linolenoyl)-sn-3-glycerophosphocholine, 1-(9-nitro-α-linolenoyl)-2-(10-nitro-α-linolenoyl)-sn-3-glycerophosphocholine and 1-(10-nitro-α-linolenoyl)-2-(9-nitro-α-linolenoyl)-sn-3-glycerophosphocholine [Example N11]”, for which, in the data set on ovarian tissue strips, the “rate of intact follicles relative to the control group” value is 95%. Regarding `CC/C=C(\C/C=C\C/C=C\CCCCCCCC(=O)OC[C@H](COP(=O)([O-])OCC[N+](C)(C)C)OC(=O)CCCCCCC/C=C\C/C=C\C/C(=C\CC)[N+](=O)[O-])[N+](=O)[O-]` [Example N20, 1,2-di-(E-15-nitro-α-linolenoyl)-sn-3-glycerophosphocholine], the “proportion of living cells relative to non-frozen control” value in the data set on sciatic nerve is reported as 82%. Regarding “1,2-di-(nitroarachidonoyl)-sn-glycero-3-phosphatidylcholines [Example N3]”, the “rate of intact follicles relative to the control group” value with ovarian tissue strips came to 94%. In the case of “1,2-di-(hydroxyl, nitro-8,11,14,17-eicosatetraenoyl)-sn-3-glycerophosphocholine [Example O5]”, the “results of the hypoxia experiments compared with reference nitrated phospholipids” value with cortical neurons was “slightly worse results”.

For “1,2-di-(9-nitrogadleoyl)-sn-3-glycerophosphocholine, 1,2-di-(10-nitrolinoleoyl)-sn-3-glycerophosphocholine, 1-(9-nitrolinoleoyl)-2-(10-nitrogadoleoyl)-sn-3-glycerophosphocholine and 1-(10-nitrogadoleoyl)-2-(9-nitrogadoleoyl)-sn-3-glycerophosphocholine [Example N9]”, in the data set on ovarian tissue strips, the “rate of intact follicles relative to the control group” value is on record as 90%. Further, the “proportion of living cells relative to non-frozen control” value with sciatic nerve is given as 79%. For “1-oleoyl-2-(9-nitropalmitoleoyl)-sn-3-glycerophosphocholine and 1-oleoyl-2-(10-nitropalmitoleoyl)-sn-3-glycerophosphocholine [Example P1]”, the “proportion of living cells relative to non-frozen control” value in the data set with sciatic nerve worked out at 90%. Consider “1,2-di-(nitro-γ-linolenoyl)-sn-glycero-3-phosphatidylcholines [Example N5]”, for which, in the data set with ovarian tissue strips, the “rate of intact follicles relative to the control group” value was 89%. The same measure, in the same setting: then “1,2-di-(nitroarachidonoyl)-sn-glycero-3-phosphatidylcholines [Example N4]”, with 92%. As for “1-erucinyl-2-(9-nitrogadoleoyl)-sn-3-glycerophosphocholine and 1-erucinyl-2-(10-nitrogadoleoyl)-sn-3-glycerophosphocholine [Example P3]”, in the data set on ovarian tissue strips, the “rate of intact follicles relative to the control group” value came out at 97%. Further, the “proportion of living cells relative to non-frozen control” value in the data set with sciatic nerve was 90%. Regarding “1-Palmitoyl-2-(9-hydroxy-10-nitrostearoyl)-sn-3-glycerophosphocholine and 1-palmitoyl-2-(10-hydroxy-9-nitrostearoyl)-sn-3-glycerophosphocholine [Example O4]”, in the data set with ovarian tissue strips, the “rate of intact follicles relative to the control group” value is 93%. With “1,2-di-(5-nitroeicosapentaenoyl)-sn-3-glycerophosphocholine, 1,2-di-(6-nitroeicosapentaenoyl)-sn-3-glycerophosphocholine, 1-(5-nitroeicosapentaenoyl)-2-(6-nitroeicosapentaenoyl)-sn-3-glycerophosphocholine and 1-(6-nitroeicosapentaenoyl)-2-(5-nitroeicosapentaenoyl)-sn-3-glycerophosPhocholine [Example N10]”, the “rate of intact follicles relative to the control group” value with ovarian tissue strips is 98%. In addition, the “proportion of living cells relative to non-frozen control” value in the data set on sciatic nerve was found to be 82%. As for `CCCCCCCC/C=C\CCCCCCCC(=O)O[C@H](COC(=O)CCCCCCCCCCCCCCC)COP(=O)(O)OC1[C@H](O)[C@H](O)C(O)[C@H](O)[C@H]1O` (stereo partly drawn) [POPI, 1-Palmitoyl-2-oleoyl-sn-3-glycero-phosphatidylinositol, reference compound], the “proportion of living cells relative to non-frozen control” value in the data set with sciatic nerve is given as 20%. As to `CCCCCCCCCCCCCCCC(=O)OC[C@H](COP(=O)([O-])OCC[N+](C)(C)C)OC(=O)CCCCCCCC(C(O)CCCCCCCC)[N+](=O)[O-]` (stereo partly drawn) [Example O2, 1-palmitoyl-2-(9-nitro-10-hydroxy-stearoyl)-sn-3-glycerophosphocholine], in the data set with ovarian tissue strips, the “rate of intact follicles relative to the control group” value is given as 87%.

For the molecule “1-Palmitoyl-2-(E-9-nitrooleoyl)-sn-3-glycero-phosphatidylinositol [PNOPI]”, in the data set on sciatic nerve, the “proportion of living cells relative to non-frozen control” value is given as 82%. For “1,2-di-(dinitrolinoleoyl)-sn-glycero-3-phosphatidylcholines [Example N12]”, the “rate of intact follicles relative to the control group” value in the data set with ovarian tissue strips was 88%. As to “1-eicosapentaenoyl-2-(5-nitro-EPA)-sn-3-glycerophosphocholine and 1-eicosapentaenoyl-2-(6-nitro-EPA)-sn-3-glycerophosphocholine [Example P4]”, in the data set on ovarian tissue strips, the “rate of intact follicles relative to the control group” value was found to be 93%. The “proportion of living cells relative to non-frozen control” value with sciatic nerve is 74%. For “1-Palmitoyl-2-(10-hydroxy-9-nitro-α-linolenoyl)-sn-3-glycerophosphocholine and 1-palmitoyl-2-(9-hydroxy-10-nitro-α-linolenoyl)-sn-3-glycerophosphocholine [Example O6]”, in the data set on sciatic nerve, the “proportion of living cells relative to non-frozen control” value is reported as 78%. Moreover, the “results of the hypoxia experiments compared with reference nitrated phospholipids” value in the data set on cortical neurons is recorded as “slightly worse results”. For the molecule `CC/C=C\C/C=C\C/C=C\C/C=C\C/C=C\C/C=C\CCC(=O)OC[C@H](COP(=O)([O-])OCC[N+](C)(C)C)OC(=O)CCCCCCC/C=C(\CCCCCC)[N+](=O)[O-]` [Example P11, 1-DHA-2-(E-10-nitropalmitoleoyl)-sn-3-glycerophosphocholine], in the data set on ovarian tissue strips, the “rate of intact follicles relative to the control group” value was 97%. For the molecule “1,2-di-(dinitro-α-linolenoyl)-sn-glycero-3-phosphatidylcholines [Example N14]”, the “proportion of living cells relative to non-frozen control” value in the data set on sciatic nerve worked out at 81%. On to “1,2-di-(dinitroeicosapentaenoyl)-sn-glycero-3-phosphatidylcholines [Example N13]”, for which the “rate of intact follicles relative to the control group” value in the data set on ovarian tissue strips was 91%.

Take `CCCCC/C=C\C/C=C\CCCCCCCC(=O)O[C@H](COC(=O)CCCCCCCCCCCCCCC)COP(=O)([O-])OCC[N+](C)(C)C` [PLPC, 1-Palmitoyl-2-linoleoyl-sn-glycero-3-PC, reference compound]: the “loss of viability of heart muscle cells after hypoxia” value in data set [1] ((10 minutes)) came to 16%; in data set [1] ((30 minutes)) it was 42%. The “mitochondrial NAD+ content” value turned out to be 2.4 nmol/mg protein in data set [1] (first printed value) and 0.7 nmol/mg protein in data set [1] (second printed value). Further, the “increase in LDH versus normoxemia culture” value with cortical neurons (10-minutes ischemia) was 380 fold; with cortical neurons (30-minutes ischemia) it was 630 fold. In addition, the results for the “viability of cortical cells measured after 24 hours” value in the data set on cortical neurons (10-minutes ischemia) and in the data set with cortical neurons (30-minutes ischemia) were 30% and 0%, respectively. With `CCCCCC/C(=C\CCCCCCCC(=O)OC[C@H](COP(=O)([O-])OCC[N+](C)(C)C)OC(=O)CCCCCCC/C=C(\CCCCCC)[N+](=O)[O-])[N+](=O)[O-]` [Example N19, 1,2-di-(E-10-nitropalmitoleoyl)-sn-3-glycerophosphocholine], the “proportion of living cells relative to non-frozen control” value in the data set on sciatic nerve worked out at 84%.

`CCCCCCCC/C(=C\CCCCCCCC(=O)O[C@H](COC(=O)CCCCC1CCSS1)COP(=O)([O-])OCC[N+](C)(C)C)[N+](=O)[O-]` (stereo partly drawn) [Example P9, 1-liponoyl-2-(E-10-nitrooleoyl)-sn-3-glycerophosphocholine]: in the data set with ovarian tissue strips, the “rate of intact follicles relative to the control group” value was 90%. The same measure, in the same setting: next, “1,2-Di-(9-hydroxy-10-nitrostearoyl)-sn-3-glycerophosphocholine, 1-(9-hydroxy-10-nitrostearoyl)-2-(10-hydroxy-9-nitrostearoyl)-sn-3-glycerophosphocholine, 1-(10-hydroxy-9-nitrostearoyl)-2-(9-hydroxy-10-nitrostearoyl)-sn-3-glycerophosphocholine and 1,2-di-(10-hydroxy-9-nitrostearoyl)-sn-3-glycerophosphocholine [Example O3]”: 91%.
